In patent publication US20150335671A1, “SMALL-MOLECULE BINDING SITE ON PRO-APOPTOTIC BAX REGULATES INHIBITION OF BAX ACTIVITY” (ALBERT EINSTEIN COLLEGE OF MEDICINE OF YESHIVA UNIVERSITY, priority 2013, published 2015):

Experiments:
BAX [1] = target: T1, BAX (Homo sapiens, UniProt Q07812); assay: Liposome release assay (ANTS/DPX release by tBID-activated BAX); type: biochemical
Procedure: FIG. 3. Left: Kinetic trace of percent release of ANTS and DPX from liposomes in response to tBID activated BAX in the absence (blue) and presence of iMAC1 (green) and iMAC2 (Red). Right: Percent release after 20 minutes at different doses of iMAC1 (green), iMAC2 (red) and iMAC3 (blue). Each molecule was tested at 6, 3 and 1.5 μM, high to low doses are indicated by dark to light tones.
FIG. 18A-18B. […] B) Docked structure of […] within the novel BAX site.
iMAC1 and iMAC2 Inhibit BAX Activation in Liposome Release Assays: Liposomes containing the fluorophore, ANTS, and the quencher, DPX, were incubated with 200 nM BAX activated with 30 nM tBID resulting in BAX-mediated pore formation in the liposomal membrane and release of ANTS and DPX.

BAX [2] = target: T1, BAX; assay: NMR chemical shift perturbation of 15N-BAX upon titration; type: binding
Source text: FIG. 4A-B. Measured chemical shift changes of 15N-BAX upon iMAC1 and iMAC2 titration up to a ratio of 1:4 BAX:iMAC are plotted as a function of BAX residue number. Residues with significant backbone amide chemical shift change are highlighted in orange. Highest significant chemical shift changes (twice the calculated significance threshold) are highlighted in red. […] Chemical shift changes in other regions of the structure are not localized and predominantly occur in hydrophobic residues at the hydrophobic core of the BAX structure. Regions that previously identified to be involved in regulating BAX activation are shown in violet shading (helix α1 and α6), teal shading (helix α2) and yellow shading (helix α9).
FIG. 13: Measured chemical shift changes of ^15N-BAX upon octyl glucoside detergent titration, below the detergent's CMC point, are plotted as a function of BAX residue number. Residues with significant backbone amide chemical shift change are highlighted in orange. Highest significant chemical shift changes (twice the calculated significance threshold) are highlighted in red.
Significant CSP mapped onto the surface and ribbon depictions of BAX (FIG. 5), the BAX trigger site (blue), the canonical BH3-binding site and a9 (green) are included for comparison. Affected residues are represented by the orange and red spheres in the ribbon diagram and by the orange and red bars in the plot (the calculated significance threshold is marked in orange and is equal to the average shift plus the standard deviation while values at double the threshold are marked in red).

oligomeric BAX = oligomeric BAX (Homo sapiens, UniProt Q07812); assay: Ligand-observed NMR (chemical shift, STD, WATER LOGSY); type: binding; settings: aromatic peaks of ligand observed
Sequence of oligomeric BAX (Q07812 whole entry): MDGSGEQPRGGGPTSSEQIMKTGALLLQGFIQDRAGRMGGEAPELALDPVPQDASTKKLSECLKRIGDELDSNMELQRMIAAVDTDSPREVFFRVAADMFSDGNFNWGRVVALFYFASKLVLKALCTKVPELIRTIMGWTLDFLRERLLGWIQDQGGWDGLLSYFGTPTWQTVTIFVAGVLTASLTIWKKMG
Source text: FIG. 22. iMACs bind to both monomer and oligomeric BAX.
iMACs Bind to Both Monomeric and Oligomeric BAX in vitro.

[3] = test system: mitochondrial apoptosis-induced channel; settings: Peixoto et al. Biochem J. 2009; cited from earlier work
cardiac myocytes = assay: Cardiac myocyte cell death under hypoxia / normoxia; type: cell-based
Source text: Accordingly, it can be seen that inhibitor compounds which bind to the novel BAX site can protect cardiac myocytes from cell death induced by hypoxia.

T1 sequence (Q07812 whole entry): as above

SMILES | inhibition of tBID-induced BAX activation and BAX pore formation (release of ANTS and DPX from liposomes) (BAX [1]; 200 nM BAX, 30 nM tBID, tested at 6, 3 and 1.5 μM, release after 20 minutes) | region of chemical shift changes of 15N-BAX (BAX [2]; iMAC titration up to a ratio of 1:4 BAX:iMAC) | binding to oligomeric BAX (oligomeric BAX) | inhibition of cytochrome c release and mitochondrial apoptosis-induced channel activity [3] | inhibition of BAX activation and BAX-mediated pore formation in liposomal membranes (BAX [1]; concentrations well below the critical micelle concentration (CMC)) | region of chemical shift changes of 15N-BAX (BAX [2]; detergent titration below the detergent's CMC point) | binding to the novel BAX site by NMR analysis (BAX [2]; octyl glucoside titration, FIG. 13) | protection from cell death (cardiac myocytes; hypoxia, compared to vehicle (0.2% DMSO)) | effect on cardiac myocytes (cardiac myocytes; normoxia)
Cl.Cl.FC(CN1CCNCC1)Cn1c2ccc(Br)cc2c2cc(Br)ccc21 (stereo not shown) [iMAC2] | inhibit tBID-induced BAX activation and BAX pore formation | concentrated in the region formed by helices α3, α4, α5 and loop α3-α4 | binding to both oligomeric BAX | more potent inhibitors | – | – | – | – | –
CCCCCCCCO[C@@H]1O[C@H](CO)[C@@H](O)[C@H](O)[C@H]1O [n-octyl-3-D-glucoside] | – | – | – | – | inhibits BAX activation and BAX-mediated pore formation | concentrated in the region formed by helices α3, α4, α5, α6 and loop α3-α4 | binding to the novel site that regulates BAX inhibition | – | –
OC(CN1CCNCC1)Cn1c2ccc(Br)cc2c2cc(Br)ccc21 (stereo not shown) [iMAC1] | – | – | – | more potent inhibitors | – | – | – | protects cardiac myocytes from cell death induced by hypoxia | no effect
